Measured values: US10265317B2, “Combination of creatine, an omega-3 fatty acid, and citicoline” (University of Utah Research Foundation, priority 2014, dated 2019)

Legend:
[1] = tested on: frontal lobe levels of both phosphocreatine and adenosine triphosphate; conditions: chronic oral administration; cited from earlier work
[2] = tested on: females between 40-60 years of age; test: Hamilton Anxiety Rating Scale (HAM-A), clinical study; format: in vivo, human; conditions: Visit 2, higher score indicates more severe symptoms
Description: (§1) Approval for the study was obtained from the University of Utah Institutional Review Board (IRB). Informed consent consisted of written assent from participants. The study was conducted under U.S. Food and Drug Administration (FDA) Investigational New Drug Application #104,586. An external Data Safety and Monitoring Board vested with authority to halt the trial was established, and the study was conducted in accordance of the principles of Good Clinical Practice (GCP).
(§2) Participants were recruited through self-referral and IRB-approved advertising. Consecutive patients who met inclusion criteria were enrolled. Inclusion criteria included the following: females between 40-60 years of age. […]
(§3) At each study visit, the following rating scales were administered: the Hamilton Anxiety Rating Scale (HAM A) (Hamilton, 1969) and the Hamilton Depression Rating Scale (HAM D) (Hamilton, 1960), the California Verbal Learning Test (Delis et al., 1987) and the Rey Osterrieth Figure Test (Bennett-Levy, 1984). Adverse events we recorded at each study visit. […]

[3] = tested on: females between 40-60 years of age; test: Hamilton Depression Rating Scale (HAM-D), clinical study; format: in vivo, human; conditions: Visit 2, higher score indicates more severe symptoms
Description: as §1, §2, §3

Structure (SMILES): C[N+](C)(C)CCOP(=O)(O)OP(=O)([O-])OC[C@H]1O[C@@H](n2ccc(N)nc2=O)[C@H](O)[C@@H]1O [CDP-Choline, cytidine-5′-diphosphocholine]
- frontal lobe levels of phosphocreatine and adenosine triphosphate [1]: increase
- HAM-A Mean ([2]; 250 mg CDP-Choline): 1.80
- HAM-A Mean ([2]; 500 mg CDP-Choline): 1.35
- HAM-D Mean ([3]; 250 mg CDP-Choline): 1.60
- HAM-D Mean ([3]; 500 mg CDP-Choline): 1.35
